The target in one experiment is LPA2 (Homo sapiens, UniProt Q9HBW0). Briefly: Fura-2AM Ca2+ mobilization in LPA2 DKO MEF cells. In kind it is cell-based. On the set-up: expressed in transfected cells; host or cells: mouse embryonic fibroblasts from LPA1/2 double-knockout mice, lentiviral transduction. As to conditions: LPA2 Ca2+ mobilization in DKO MEF cells, mean fluorescence ratio. The method, then:
(§1) Fluorescence was read every 3.42 seconds for a total of 70 seconds at Ex/Emλ of 340/510 nm and 380/510 nm. Data (relative fluorescence) was then recorded as a mean fluorescence ratio value of the triplicates for each concentration. Graph Pad Prism version 5.0a was then used to fit a non-linear regression curve in a variable slope model (A) to determine the EC50, Emax, and curve fit (R^2)(B).
Mouse embryonic fibroblast (MEF) cells used in this study isolated from LPA1/2 double knock out (LPA2-DKO) mice {Lin, 2007 #132}. These MEF express LPA4/5/6 receptors endogenously at lower levels but completely lack LPA1/2/3 receptor subtypes. The human LPA2 receptor was reintroduced into these MEF cells by lentiviral transduction, which are designated LPA2 DKO MEF {Lin, 2007 #132}. Empty vector-transduced MEF cells, designates as EV DKO MEF, were used as a control. Cells were cultured in a DMEM supplemented with 10% v/v fetal bovine serum (FBS), 2 mM L-glutamine, 100 U/ml penicillin, and 100 μg/mL streptomycin. During serum starvation, the growth medium was replaced with DMEM containing 0.1% (w/v) BSA.
as §1
On the technique in general: Calcium flux is commonly read through the fluorescence of an indicator in the cells.

For a further experiment, the system named is Bax. The experiment in a line: Immunoblot, Bax translocation. Particulars: 10 μM. It is filed as cell-based, mouse. The method, then: (§2) Experiments were performed on vector- and LPA2-transduced MEF cells. To measure caspase 3, 7, 8, or 9 activity and DNA fragmentation, cells were plated in 48-well plates (2×10^4 cells/well). To detect PARP-1 cleavage and Bax translocation, 1.5×10^6 cells were plated in 10-cm dishes and cultured overnight in full growth medium. The next morning, the growth medium was replaced by serum-starvation medium and cells were pretreated for 1 h with LPA (1-10 μM), OTP (1-10 μM), GRI977143 (1-10 μM), or vehicle. Caspase activity, DNA fragmentation, PARP-1 cleavage, and Bax translocation were measured 5 h after incubation with 1.7 μM Adriamycin or 24 h after serum withdrawal.
(§3) To detect ligand-induced ERK1/2 activation, vector- and LPA2-transfected MEF cells were serum starved 3 h before exposure to 1 μM LPA, 1 μM OTP, 10 μM GRI977143, or vehicle for 10 min. For ERK1/2 activation and PARP-1 cleavage measurements, cells were harvested in 1× Laemmli sample buffer and separated using 12% Laemmli SDS-polyacrylamide gels. To assess Bax translocation, cell lysates were separated into cytosolic, mitochondrial, and nuclear fractions using the Cell Fractionation Kit-Standard (MitoSciences; Eugene, Oreg.). […] Samples were boiled for 5 min and loaded onto 12% SDS-polyacrylamide gels. Western blotting was carried out as previously described (Valentine et al., 2010). Primary antibodies against pERK1/2, PARP-1, Bax (Cell Signaling Technology; Beverly, Mass.), actin (Sigma-Aldrich), and anti-rabbit-horseradish peroxidase secondary antibodies (Promega) were used according to the instructions of the manufacturer.

The subject of a further experiment is PARP-1. The experiment in a line: Immunoblot, PARP-1 cleavage. In kind it is cell-based, mouse. As to conditions: 10 μM. The method, then:
as §2
as §3, with “Primary antibodies against pERK1/2, PARP-1, Bax (Cell Signaling Technology; Beverly, Mass.), actin (Sigma-Aldrich), and anti-rabbit-horseradish peroxidase secondary antibodies (Promega) were used according to the instructions of the manufacturer.” left out
Background: Immunoblotting shows a protein as a band on a membrane.

For the next experiment, the system named is ERK1/2. Briefly: Immunoblot, ERK1/2 activation. It is filed as cell-based, mouse. Particulars: 10 μM, 10 min. The method, then:
as §3

Sequence of LPA2 (Q9HBW0 whole entry): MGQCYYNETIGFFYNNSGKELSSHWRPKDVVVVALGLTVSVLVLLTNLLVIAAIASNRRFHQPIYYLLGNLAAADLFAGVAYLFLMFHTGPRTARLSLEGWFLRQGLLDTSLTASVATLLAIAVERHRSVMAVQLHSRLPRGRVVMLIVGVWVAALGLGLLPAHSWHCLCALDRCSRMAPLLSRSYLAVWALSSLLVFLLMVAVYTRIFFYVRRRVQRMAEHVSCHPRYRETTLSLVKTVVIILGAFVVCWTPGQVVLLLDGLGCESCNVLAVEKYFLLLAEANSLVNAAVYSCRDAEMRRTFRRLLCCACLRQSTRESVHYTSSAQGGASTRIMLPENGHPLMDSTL

Regarding `CCCCCCCC/C=C\CCCCCCCC(=O)OC[C@@H](O)COP(=O)(O)O` [LPA 18:1, Lysophosphatidic acid (18:1)], on LPA2, the “Emax (MFR)” value is 1.2 MFR.
On to `O=C(O)c1ccccc1SCCCN1C(=O)c2cccc3cccc(c23)C1=O` [GRI977143], for which, in the experiment on Bax (LPA2-transduced MEF, Adriamycin), the “Bax translocation to the mitochondria” value was “maintained a high level of Bax in the cytoplasm”. Further, the “cytosolic Bax level” value with Bax (serum withdrawal model) is “did not detect any change in cytosolic Bax level”. The Bax translocation result with Bax (vector-transduced MEF, Adriamycin) was “failed to reduce Bax translocation”. In addition, the PARP-1 cleavage entry in the experiment on PARP-1 (LPA2-transduced MEF, Adriamycin or serum withdrawal) is “reduced PARP-1 cleavage”; in the experiment on PARP-1 (vector-transduced cells), “not observed”. Moreover, the “increase in ERK1/2 activation” value in the experiment with ERK1/2 (LPA2-transduced MEF) was determined as 9.6 fold. For the same compound, the ERK1/2 basal activity result in the experiment with ERK1/2 (vector-transduced MEF) is “did not alter the basal activity”.
